# Results: PubChem BioAssay (NCI)
# Where “and” joins values, the source holds several entries; their conditions need not be identical. Equal entries are not always repeated.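 Each compound was tested at five concentrations against cells in 96-well plates for 48 hours. GI50 = concentration required for 50% inhibition of growth. TGI: concentration producing complete growth inhibition.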
# Tests used:
# Assay in all cases: DTP human tumour cell line panel, 48 h
# SK-OV-3 ovarian = system: SK-OV-3 ovarian
# SK-MEL-2 melanoma = system: SK-MEL-2 melanoma
# LXFL 529 NSCLC = system: LXFL 529 NSCLC
# HL-60(TB) leukemia = system: HL-60(TB) leukemia
# NCI-H460 lung = system: NCI-H460 lung
# SF-268 CNS = system: SF-268 CNS
# RXF 393 renal = system: RXF 393 renal
# HOP-62 NSCLC = system: HOP-62 NSCLC
# NCI-H23 lung = system: NCI-H23 lung
# UACC-257 melanoma = system: UACC-257 melanoma
# A549 NSCLC = system: A549 NSCLC
# RPMI-8226 leukemia = system: RPMI-8226 leukemia
# SNB-19 CNS = system: SNB-19 CNS
# SK-MEL-28 melanoma = system: SK-MEL-28 melanoma
# SW-620 colon = system: SW-620 colon
# DMS 114 small cell lung = system: DMS 114 small cell lung
# CCRF-CEM leukemia = system: CCRF-CEM leukemia
# HCT-116 colon = system: HCT-116 colon
# MCF7 breast = system: MCF7 breast
# OVCAR-5 ovarian = system: OVCAR-5 ovarian
# OVCAR-4 ovarian = system: OVCAR-4 ovarian
# RXF-631 renal = system: RXF-631 renal
# SK-MEL-5 melanoma = system: SK-MEL-5 melanoma
# HT29 colon = system: HT29 colon
# U251 CNS = system: U251 CNS
# NCI-H522 lung = system: NCI-H522 lung
# IGROV1 ovarian = system: IGROV1 ovarian
# MOLT-4 leukemia = system: MOLT-4 leukemia
# SF-295 CNS = system: SF-295 CNS
# MDA-MB-435 = system: MDA-MB-435
# NCI-H226 lung = system: NCI-H226 lung
# OVCAR-3 ovarian = system: OVCAR-3 ovarian
# TK-10 renal = system: TK-10 renal
# SNB-75 CNS = system: SNB-75 CNS
# SR leukemia = system: SR leukemia
# EKVX NSCLC = system: EKVX NSCLC
# UACC-62 melanoma = system: UACC-62 melanoma
# CAKI-1 renal = system: CAKI-1 renal
# OVCAR-8 ovarian = system: OVCAR-8 ovarian
# SF-539 CNS = system: SF-539 CNS
# SN12C renal = system: SN12C renal
# MALME-3M melanoma = system: MALME-3M melanoma
# PC-3 prostate = system: PC-3 prostate
# HCC-2998 colon = system: HCC-2998 colon
# M14 melanoma = system: M14 melanoma
# M19-MEL melanoma = system: M19-MEL melanoma
# K-562 leukemia = system: K-562 leukemia
# LOX IMVI melanoma = system: LOX IMVI melanoma
# DLD-1 colon = system: DLD-1 colon
# HOP-18 NSCLC = system: HOP-18 NSCLC
# ACHN renal = system: ACHN renal
# HOP-92 NSCLC = system: HOP-92 NSCLC
# HCT-15 colon = system: HCT-15 colon
# COLO 205 colon = system: COLO 205 colon
# UO-31 renal = system: UO-31 renal
# MDA-MB-231 breast = system: MDA-MB-231 breast
# KM12 colon = system: KM12 colon
# SNB-78 CNS = system: SNB-78 CNS
# 786-0 renal = system: 786-0 renal
# A498 renal = system: A498 renal
# KM20L2 colon = system: KM20L2 colon
# MDA-N = system: MDA-N
# DMS 273 small cell lung = system: DMS 273 small cell lung
structure (smiles),measurement,setting,value
CN1CCN(CCn2c3c4ccccc4ccc3c3oc(=O)c4ccccc4c32)CC1,TGI,SK-OV-3 ovarian,27.4 µM
same,TGI,SK-MEL-2 melanoma,27.7 µM
same,TGI,LXFL 529 NSCLC,8.07 µM
same,TGI,HL-60(TB) leukemia,3.47 µM
same,GI50,NCI-H460 lung,1.46 µM
same,TGI,NCI-H460 lung,4.09 µM and 2.95 µM
same,GI50,SF-268 CNS,5.03 µM
same,TGI,SF-268 CNS,14 µM
same,GI50,RXF 393 renal,5.75 µM
same,TGI,RXF 393 renal,> 1 µM and 19.9 µM
same,GI50,HOP-62 NSCLC,10.1 µM
same,TGI,HOP-62 NSCLC,4.65 µM and 23.7 µM
same,GI50,NCI-H23 lung,1.92 µM
same,TGI,NCI-H23 lung,3.72 µM and 15.7 µM
same,GI50,UACC-257 melanoma,> 1 µM
same,TGI,UACC-257 melanoma,> 1 µM and 2.96 µM
same,GI50,A549 NSCLC,2.91 µM
same,TGI,A549 NSCLC,8.92 µM and 8.94 µM
same,GI50,RPMI-8226 leukemia,1.84 µM
same,TGI,RPMI-8226 leukemia,3.79 µM and 15 µM
same,GI50,SNB-19 CNS,1.5 µM
same,TGI,SNB-19 CNS,7.24 µM and 10.9 µM
same,GI50,SK-MEL-28 melanoma,1.99 µM
same,TGI,SK-MEL-28 melanoma,3.47 µM and 9.37 µM
same,TGI,SW-620 colon,4.29 µM and 5.33 µM
same,TGI,DMS 114 small cell lung,3.84 µM
same,TGI,CCRF-CEM leukemia,3.2 µM and 3.94 µM
same,GI50,HCT-116 colon,1.55 µM
same,TGI,HCT-116 colon,2.88 µM and 3.79 µM
same,TGI,MCF7 breast,3.03 µM
same,TGI,OVCAR-5 ovarian,10.4 µM
same,TGI,OVCAR-4 ovarian,6.85 µM
same,TGI,RXF-631 renal,17.8 µM
same,TGI,SK-MEL-5 melanoma,3.41 µM
same,GI50,HT29 colon,1.65 µM
same,TGI,HT29 colon,3.3 µM and 2.71 µM
same,TGI,U251 CNS,6.25 µM and 6.92 µM
same,GI50,NCI-H522 lung,1.68 µM
same,TGI,NCI-H522 lung,3.29 µM and 10.4 µM
same,GI50,IGROV1 ovarian,> 1 µM
same,TGI,IGROV1 ovarian,> 1 µM and 31.1 µM
same,TGI,MOLT-4 leukemia,3.2 µM and 4.38 µM
same,GI50,SF-295 CNS,1.88 µM
same,TGI,SF-295 CNS,4.5 µM and 9.45 µM
same,TGI,MDA-MB-435,3.35 µM
same,TGI,NCI-H226 lung,33.5 µM
same,TGI,OVCAR-3 ovarian,23.7 µM
same,TGI,TK-10 renal,22.5 µM
same,TGI,SNB-75 CNS,16.6 µM
same,TGI,SR leukemia,3.13 µM
same,TGI,EKVX NSCLC,25.5 µM
same,GI50,UACC-62 melanoma,2.14 µM
same,TGI,UACC-62 melanoma,4.74 µM and 5.11 µM
same,TGI,CAKI-1 renal,16.7 µM
same,GI50,OVCAR-8 ovarian,2.32 µM
same,TGI,OVCAR-8 ovarian,5.13 µM and 3.37 µM
same,TGI,SF-539 CNS,3.47 µM and 3.08 µM
same,GI50,SN12C renal,4.44 µM
same,TGI,SN12C renal,3.05 µM
same,TGI,MALME-3M melanoma,29.3 µM
same,TGI,PC-3 prostate,4.59 µM
same,GI50,HCC-2998 colon,4.22 µM
same,TGI,HCC-2998 colon,3.74 µM and 18.7 µM
same,GI50,M14 melanoma,1.94 µM
same,TGI,M14 melanoma,3.43 µM and 3.29 µM
same,TGI,M19-MEL melanoma,24.7 µM
same,TGI,K-562 leukemia,2.89 µM and 4.29 µM
same,GI50,LOX IMVI melanoma,1.61 µM and 4.84 µM
same,TGI,DLD-1 colon,6.13 µM
same,TGI,HOP-18 NSCLC,25.1 µM
same,TGI,ACHN renal,7.42 µM
same,GI50,HOP-92 NSCLC,3.44 µM
same,TGI,HOP-92 NSCLC,17 µM
same,GI50,HCT-15 colon,1.61 µM
same,TGI,HCT-15 colon,3.21 µM and 7.92 µM
same,GI50,COLO 205 colon,2 µM
same,TGI,COLO 205 colon,3.4 µM and 5.14 µM
same,GI50,UO-31 renal,3.08 µM
same,TGI,UO-31 renal,11.9 µM
same,TGI,MDA-MB-231 breast,3.59 µM
same,GI50,KM12 colon,2.13 µM
same,TGI,KM12 colon,4.54 µM and 6.56 µM
same,TGI,SNB-78 CNS,16.4 µM
same,GI50,786-0 renal,1.96 µM
same,TGI,786-0 renal,3.76 µM and 4.07 µM
same,GI50,A498 renal,18.7 µM
same,TGI,A498 renal,38.3 µM
same,TGI,KM20L2 colon,7.79 µM
same,TGI,MDA-N,2.95 µM
O=C1CCC(O)=C1N=Nc1cc(Cl)cc(Cl)c1,TGI,SK-OV-3 ovarian,> 100 µM
same,TGI,SK-MEL-2 melanoma,> 100 µM
same,TGI,HL-60(TB) leukemia,> 100 µM
same,TGI,NCI-H460 lung,> 100 µM
same,TGI,DMS 273 small cell lung,> 100 µM
same,TGI,SF-268 CNS,> 100 µM
same,TGI,RXF 393 renal,> 100 µM
same,TGI,HOP-62 NSCLC,> 100 µM
same,TGI,NCI-H23 lung,> 100 µM
same,TGI,UACC-257 melanoma,> 100 µM
same,TGI,A549 NSCLC,> 100 µM
same,TGI,RPMI-8226 leukemia,> 100 µM
same,TGI,SNB-19 CNS,> 100 µM
same,TGI,SK-MEL-28 melanoma,> 100 µM
same,TGI,SW-620 colon,> 100 µM
same,TGI,DMS 114 small cell lung,> 100 µM
same,TGI,CCRF-CEM leukemia,> 100 µM
same,TGI,HCT-116 colon,> 100 µM
same,TGI,OVCAR-5 ovarian,> 100 µM
same,TGI,OVCAR-4 ovarian,> 100 µM
same,TGI,RXF-631 renal,> 100 µM
same,TGI,SK-MEL-5 melanoma,> 100 µM
same,TGI,HT29 colon,> 100 µM
same,TGI,U251 CNS,> 100 µM
same,TGI,IGROV1 ovarian,> 100 µM
same,TGI,MOLT-4 leukemia,> 100 µM
same,TGI,SF-295 CNS,> 100 µM
same,TGI,NCI-H226 lung,> 100 µM
same,TGI,OVCAR-3 ovarian,98.2 µM
same,TGI,TK-10 renal,> 100 µM
same,TGI,SNB-75 CNS,> 100 µM
same,TGI,EKVX NSCLC,> 100 µM
same,TGI,UACC-62 melanoma,> 100 µM
same,TGI,CAKI-1 renal,> 100 µM
same,TGI,OVCAR-8 ovarian,> 100 µM
same,TGI,SF-539 CNS,> 100 µM
same,TGI,SN12C renal,> 100 µM
same,TGI,MALME-3M melanoma,> 100 µM
same,TGI,HCC-2998 colon,> 100 µM
same,TGI,M14 melanoma,> 100 µM
same,TGI,M19-MEL melanoma,> 100 µM
same,TGI,K-562 leukemia,> 100 µM
same,TGI,LOX IMVI melanoma,> 100 µM
same,TGI,DLD-1 colon,> 100 µM
same,TGI,HOP-18 NSCLC,> 100 µM
same,TGI,ACHN renal,> 100 µM
same,TGI,HOP-92 NSCLC,> 100 µM
same,TGI,HCT-15 colon,> 100 µM
same,TGI,COLO 205 colon,> 100 µM
same,TGI,UO-31 renal,> 100 µM
same,TGI,KM12 colon,> 100 µM
same,TGI,SNB-78 CNS,> 100 µM
same,TGI,786-0 renal,> 100 µM
same,TGI,A498 renal,91 µM
